According to ChEMBL document CHEMBL3508693 (2016):

How the values were obtained:
[1] = Excretion of radioactivity (0-24h) in urine following single intravenous dose of 10 mg.Kg-1 [14C] aliskiren hemifumarate in rat; format: ADME, organism-based, Albino HAN:WIST; settings: in vivo
[2] = Excretion of radioactivity (48-72h) in urine following single oral dose of 100 mg.Kg-1 [14C] aliskiren hemifumarate in rat; format: ADME, organism-based, Albino HAN:WIST; settings: in vivo
[3] = Concentration of radioactivity in the colon wall following repeated oral administration of [14C] aliskiren hemifumarate at 100 mg.Kg-1 level studied at 24h after 3rd dose in rat; format: ADME, organism-based, Albino HAN:WIST; settings: in vivo
[4] = Mean excretion of radioactivity (24-48h) in urine and faeces following single intravenous dose of 10 mg.Kg-1 [14C] aliskiren hemifumarate in rat; format: ADME, organism-based, Albino HAN:WIST, Urine/Feces; settings: in vivo
[5] = molecular target: Cytochrome P450 3A5 (Homo sapiens, UniProt P20815); assay: Metabolic clearance (ul.min.nmol-1 CYP) of aliskiren hemifumarate for CYP3A5 was determined in human liver microsome incubated with [14C]SPP100 hemifumarate; format: ADME; settings: microsomes
Cytochrome P450 3A5, sequence (P20815 whole entry): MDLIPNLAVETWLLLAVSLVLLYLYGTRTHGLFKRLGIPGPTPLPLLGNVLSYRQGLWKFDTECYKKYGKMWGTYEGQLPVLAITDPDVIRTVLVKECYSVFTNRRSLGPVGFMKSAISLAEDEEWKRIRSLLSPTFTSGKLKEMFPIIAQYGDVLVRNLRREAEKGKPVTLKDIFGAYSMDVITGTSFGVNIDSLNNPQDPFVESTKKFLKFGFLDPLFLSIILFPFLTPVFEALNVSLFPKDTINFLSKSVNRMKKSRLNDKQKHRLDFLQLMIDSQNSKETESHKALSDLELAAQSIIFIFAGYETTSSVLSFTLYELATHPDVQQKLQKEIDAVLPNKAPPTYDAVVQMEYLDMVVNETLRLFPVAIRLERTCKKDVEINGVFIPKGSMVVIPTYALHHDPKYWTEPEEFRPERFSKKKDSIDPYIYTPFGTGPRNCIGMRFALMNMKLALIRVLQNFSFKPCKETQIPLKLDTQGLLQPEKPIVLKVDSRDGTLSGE

[6] = Concentration of radioactivity in carcass following oral administration of [14C] aliskiren hemifumarate at 100 mg.Kg-1 level measured on day 7 in rat; format: ADME, organism-based, Lister-Hooded; settings: in vivo
[7] = Total excretion (0-72h) of radioactivity in urine, faeces and cage wash following single oral dose of 500 mg.Kg-1 [14C] aliskiren hemifumarate in mouse; format: ADME, organism-based, TgRasH2, Urine/Feces; settings: in vivo
[8] = Faecal elimination of aliskiren following single intravenous dose of [14C] aliskiren hemifumarate at 10 mg.Kg-1 level in mouse; format: ADME, organism-based, TgRasH2, Feces; settings: in vivo
[9] = Plasma concentration of [14C] aliskiren hemifumarate in first 24h following single oral dose of [14C] aliskiren hemifumarate at 500 mg.Kg-1 level in mouse; format: ADME, organism-based, TgRasH2; settings: in vivo
[10] = Excretion of radioactivity (0-24h) in urine following single oral dose of 100 mg.Kg-1 [14C] aliskiren hemifumarate in rat; format: ADME, organism-based, Albino HAN:WIST; settings: in vivo
[11] = molecular target: T1, Cytochrome P450 4A11 (Homo sapiens, UniProt Q02928); assay: Metabolic clearance (ul.min.nmol-1 CYP) of aliskiren hemifumarate for CYP4A11 was determined in human liver microsome incubated with [14C]SPP100 hemifumarate; format: ADME; settings: microsomes
T1 sequence (Q02928 whole entry): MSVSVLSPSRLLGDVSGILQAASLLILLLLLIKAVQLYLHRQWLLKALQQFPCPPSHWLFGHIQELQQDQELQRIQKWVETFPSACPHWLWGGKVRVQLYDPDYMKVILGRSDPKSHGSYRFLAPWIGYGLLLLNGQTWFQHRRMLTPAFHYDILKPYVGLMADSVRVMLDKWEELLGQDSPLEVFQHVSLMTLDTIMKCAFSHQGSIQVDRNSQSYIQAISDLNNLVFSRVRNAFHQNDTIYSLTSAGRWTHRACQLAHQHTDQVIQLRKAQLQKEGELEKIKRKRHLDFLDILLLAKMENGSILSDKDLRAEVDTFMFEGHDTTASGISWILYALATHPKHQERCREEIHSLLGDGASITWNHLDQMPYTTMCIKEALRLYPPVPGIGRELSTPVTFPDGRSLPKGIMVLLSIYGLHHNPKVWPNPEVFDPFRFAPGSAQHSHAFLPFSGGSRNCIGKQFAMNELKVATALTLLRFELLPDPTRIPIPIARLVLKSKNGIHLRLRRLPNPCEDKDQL

[12] = molecular target: T2, CYP2A6 (Homo sapiens, UniProt P11509); assay: Inhibitory activity of 200 uM SPP100 on 37 Pmoles of cDNA-derived CYP2A6 enzyme in microsome prepared from human lymphoblastoid cell line; format: ADME, microsomes; set-up: conc 200 uM, interact cpd conc 3 uM; settings: probe coumarine
T2 sequence (P11509 whole entry): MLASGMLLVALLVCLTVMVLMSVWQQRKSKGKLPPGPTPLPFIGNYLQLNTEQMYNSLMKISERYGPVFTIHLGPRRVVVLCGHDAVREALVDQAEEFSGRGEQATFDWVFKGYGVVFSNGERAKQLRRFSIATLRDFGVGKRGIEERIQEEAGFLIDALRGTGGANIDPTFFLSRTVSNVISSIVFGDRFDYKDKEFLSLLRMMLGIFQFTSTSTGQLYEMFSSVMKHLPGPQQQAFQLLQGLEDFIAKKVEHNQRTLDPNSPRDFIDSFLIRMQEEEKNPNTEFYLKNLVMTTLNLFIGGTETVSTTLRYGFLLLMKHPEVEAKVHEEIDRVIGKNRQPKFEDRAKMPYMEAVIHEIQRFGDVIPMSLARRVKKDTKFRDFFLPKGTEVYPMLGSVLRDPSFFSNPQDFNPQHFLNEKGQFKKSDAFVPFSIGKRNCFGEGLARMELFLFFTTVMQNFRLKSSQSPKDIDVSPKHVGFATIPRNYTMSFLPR

[13] = Effect of 4 week oral dietary dosing of aliskiren hemifumarate at 2000 mg.Kg-1 level on spermatogenesis in male mouse; format: toxicity, organism-based, CB6F1-TGrasH2, Testis; settings: in vivo, 672 h
[14] = Plasma clearance (0-96h) of unlabeled aliskiren hemifumarate following intravenous administration of aliskiren hemifumarate at 10 mg.Kg-1 level in rat; format: ADME, organism-based, Albino HAN:WIST; settings: in vivo
[15] = AUC/dose (0-96h) of unlabeled aliskiren hemifumarate following intravenous administration of aliskiren hemifumarate at 10 mg.Kg-1 level in rat; format: ADME, organism-based, Albino HAN:WIST, Plasma; settings: in vivo
[16] = AUCspec of aliskiren hemifumarate following 2 week oral dosing of aliskiren hemifumarate at 100 mg.Kg-1 level studied on day 1 in male Callithrix jacchus; format: ADME, organism-based, Plasma; settings: marmoset, in vivo, 336 h
[17] = AUC (0-24h) of aliskiren hemifumarate following 4 week oral dietary dosing of aliskiren hemifumarate at 1000 mg.Kg-1 level in female mouse; format: ADME, organism-based; settings: CB6F1-TGrasH2, mouse, plasma
[18] = Cmax (0-96h) of unlabeled aliskiren hemifumarate following oral administration of aliskiren hemifumarate at 100 mg.Kg-1 level in rat; format: ADME, organism-based; settings: Albino HAN:WIST, plasma
[19] = Cmax normalised (0-168h) of unlabeled aliskiren hemifumarate following single intravenous administration of aliskiren hemifumarate at 1 mg.Kg-1 level in marmoset; format: ADME, organism-based, Callithrix jacchus, Plasma; settings: in vivo
[20] = molecular target: hERG (KCNH2) (Homo sapiens, UniProt Q12809); assay: Effects of 1000 uM aliskiren hemifumarate on current through cloned hERG channel expressed in human embryonic kidney cell; format: cell-based; set-up: conc 1000 uM, dose level High; settings: HEK293 cells that express cloned hERG channel, read-out: Inhibitory activity
hERG (KCNH2), sequence (Q12809 whole entry): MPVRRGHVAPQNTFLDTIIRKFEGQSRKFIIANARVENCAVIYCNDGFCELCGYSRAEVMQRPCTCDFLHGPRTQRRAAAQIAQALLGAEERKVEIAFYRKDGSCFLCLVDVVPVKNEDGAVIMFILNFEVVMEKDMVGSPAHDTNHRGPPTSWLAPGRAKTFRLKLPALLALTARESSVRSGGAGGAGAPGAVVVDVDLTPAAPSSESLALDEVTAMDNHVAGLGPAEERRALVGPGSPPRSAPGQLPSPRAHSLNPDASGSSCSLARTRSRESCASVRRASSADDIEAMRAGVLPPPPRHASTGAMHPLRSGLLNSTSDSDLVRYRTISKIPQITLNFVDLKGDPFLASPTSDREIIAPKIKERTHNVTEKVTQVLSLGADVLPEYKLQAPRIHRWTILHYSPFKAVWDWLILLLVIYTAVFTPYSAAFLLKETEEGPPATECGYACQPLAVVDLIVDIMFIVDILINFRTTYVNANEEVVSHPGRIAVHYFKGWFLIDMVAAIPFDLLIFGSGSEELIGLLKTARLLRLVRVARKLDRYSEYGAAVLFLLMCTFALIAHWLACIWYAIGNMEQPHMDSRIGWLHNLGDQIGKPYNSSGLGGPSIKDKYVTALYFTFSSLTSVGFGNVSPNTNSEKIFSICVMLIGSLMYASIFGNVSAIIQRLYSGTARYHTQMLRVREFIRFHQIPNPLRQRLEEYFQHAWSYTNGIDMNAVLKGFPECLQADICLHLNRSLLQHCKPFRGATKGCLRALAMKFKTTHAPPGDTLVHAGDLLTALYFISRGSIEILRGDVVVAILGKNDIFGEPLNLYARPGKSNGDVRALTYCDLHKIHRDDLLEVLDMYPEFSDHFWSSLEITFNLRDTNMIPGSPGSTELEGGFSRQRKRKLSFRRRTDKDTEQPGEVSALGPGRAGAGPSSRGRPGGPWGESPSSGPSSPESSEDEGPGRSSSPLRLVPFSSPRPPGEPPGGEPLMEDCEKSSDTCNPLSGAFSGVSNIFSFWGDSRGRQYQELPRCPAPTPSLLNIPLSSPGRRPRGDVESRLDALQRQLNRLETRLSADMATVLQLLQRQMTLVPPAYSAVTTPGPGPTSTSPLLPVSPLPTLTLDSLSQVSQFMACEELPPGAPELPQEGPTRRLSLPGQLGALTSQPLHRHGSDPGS

[21] = AUC (0-24h)/dose of aliskiren hemifumarate following 4 week oral dietary dosing of aliskiren hemifumarate at 1000 mg.Kg-1 level in female mouse; format: ADME, organism-based, CB6F1-TGrasH2, Plasma; settings: in vivo
[22] = Effect of 2 week oral dosing of aliskiren hemifumarate at 50 mg.Kg-1 level on hematological parameter values in female Callithrix jacchus; format: toxicity, organism-based, Plasma; settings: marmoset, in vivo, 336 h
[23] = AUC infinity of aliskiren hemifumarate following 2 week oral dosing of aliskiren hemifumarate at 100 mg.Kg-1 level studied on day 1 in male Callithrix jacchus; format: ADME, organism-based; settings: marmoset, plasma, read-out: AUC infinity
[24] = Tmax of aliskiren hemifumarate following single dosing of SPP100B oral solution at 40 mg level studied on day 1 in men; format: ADME, organism-based; settings: male, human, plasma
[25] = Cmax of aliskiren hemifumarate following 4 week oral dietary dosing of aliskiren hemifumarate at 1000 mg.Kg-1 level in male mouse; format: ADME, organism-based; settings: CB6F1-TGrasH2, mouse, in vivo
[26] = Cmaxspec of aliskiren hemifumarate following 2 week oral dosing of aliskiren hemifumarate at 10 mg.Kg-1 level studied on day 14 in female Callithrix jacchus; format: ADME, organism-based, Plasma; settings: marmoset, in vivo, 336 h

COCCCOc1cc(C[C@@H](C[C@H](N)[C@@H](O)C[C@H](C(=O)NCC([14CH3])([14CH3])C(N)=O)C(C)C)C(C)C)ccc1OC.O=C(O)/C=C/C(=O)O
Radiolabel recovery [1]: 35.6%
Radiolabel recovery [2]: 0.04%
Radiolabel recovery [3]: OUTCOME = Observed, VALUE = Highest radioactivity concentration was observed
Radiolabel recovery [4]: 28.9%
CL [5]: 47 µL·min/nmol
Radiolabel recovery [6]: OUTCOME = Observed, VALUE = residues of radioactivity remained in the carcass at 7 days after dosing
Radiolabel recovery [7]: 94.44%
Radiolabel recovery [8]: OUTCOME = Observed, VALUE = Elimination of aliskiren occurred mainly via the biliary or faecal route
Compound recovery [9]: 56%
Radiolabel recovery [10]: 0.47%
CL [11]: 4.9 µL·min/nmol

COCCCOc1cc(C[C@@H](C[C@H](N)[C@@H](O)C[C@H](C(=O)NCC(C)(C)C(N)=O)C(C)C)C(C)C)ccc1OC
inhibition at 200 µM [12]: 2.6%

COCCCOc1cc(C[C@@H](C[C@H](N)[C@@H](O)C[C@H](C(=O)NCC(C)(C)C(N)=O)C(C)C)C(C)C)ccc1OC.COCCCOc1cc(C[C@@H](C[C@H](N)[C@@H](O)C[C@H](C(=O)NCC(C)(C)C(N)=O)C(C)C)C(C)C)ccc1OC.O=C(O)/C=C/C(=O)O [ALISKIREN FUMARATE]
Change in spermatogenesis [13]: OUTCOME = No abnormalities. No animals died during the study.
Plasma clearance [14]: 1.2 L·h/kg
AUC normalised [15]: 1.26 (umol.h/L)/(mg/kg)
AUC normalised [16]: 0.764 ((ug.h.ml-1)/(mg/kg)
AUC(0-t) at 24 h [17]: 2280 ng·h/mL
Cmax [18]: 270 nM
Cmax normalised [19]: 14.24 (umol/L)/(mg/kg)
inhibition at 1000 µM [20]: 32%
AUC normalised [21]: 2.28 ((ng/mL).hours)/(mg/kg/day)
Change in hematology [22]: OUTCOME = Hematological parameter values did not differ from control values. No animals died during the study.
AUC(0-inf) [23]: 103 µg·h/mL
Tmax [24]: 1.6 h
Cmax [25]: 879 ng/mL
Cmax normalised [26]: 0.673 (ug/ml)/(mg/kg)
